Experimental data: ChEMBL document CHEMBL1201862, “PubChem BioAssay data set” (2004)
Calls of active or inactive are those of the source.

Assays:
[1] = biological target: Eukaryotic translation initiation factor 4H (Homo sapiens, UniProt Q15056); test: eIF4H binding inhibition – biochemical, uHTS, fluorescence polarization, translation initiation inhibitor project, primary screen (AID 2012)
[2] = biological target: T1, Polyadenylate-binding protein 1 (Homo sapiens, UniProt P11940); test: blockers of PABP interaction with poly(A) – biochemical, fluorescence polarization, […] (AID 2014)
T1 sequence (P11940 whole entry): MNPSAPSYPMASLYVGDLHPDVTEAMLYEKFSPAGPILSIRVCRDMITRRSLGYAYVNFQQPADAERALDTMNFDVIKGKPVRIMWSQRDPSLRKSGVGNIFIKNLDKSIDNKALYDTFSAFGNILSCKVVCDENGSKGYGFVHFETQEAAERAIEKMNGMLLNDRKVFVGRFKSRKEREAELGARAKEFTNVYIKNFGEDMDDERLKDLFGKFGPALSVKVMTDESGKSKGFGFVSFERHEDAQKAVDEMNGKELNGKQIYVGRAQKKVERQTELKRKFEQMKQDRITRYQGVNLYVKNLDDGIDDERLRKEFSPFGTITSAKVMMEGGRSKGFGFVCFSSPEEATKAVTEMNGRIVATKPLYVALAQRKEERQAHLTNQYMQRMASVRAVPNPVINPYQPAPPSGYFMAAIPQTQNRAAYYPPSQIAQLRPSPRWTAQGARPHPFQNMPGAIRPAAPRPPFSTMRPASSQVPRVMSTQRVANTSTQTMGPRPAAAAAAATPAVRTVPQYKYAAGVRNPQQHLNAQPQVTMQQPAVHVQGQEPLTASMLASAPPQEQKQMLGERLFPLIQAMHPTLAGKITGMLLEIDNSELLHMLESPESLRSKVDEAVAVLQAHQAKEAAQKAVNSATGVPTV

[3] = mRNA 3' processing disruption, beta-gal signal increase – luminescence, S. cerevisiae SKY197-pL101, dose response (AID 2525); type: functional, cell-based
[4] = system: Streptococcus sp. 'group A'; test: Streptococcus pyogenes SK(-)GAS viability under kanamycin – luminescence, BacTiterGlo, confirmation, counter-screen for streptokinase expression inhibitor project, dose response (AID 1900); type: functional, organism-based
[5] = biological target: T2, Streptokinase A (Streptococcus pyogenes serotype M1, UniProt P10520); test: viability-normalized secreted streptokinase activity reduction – plasminogen activation absorbance, OD405, dose response (AID 1914); type: functional, Streptococcus pyogenes M1 GAS;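 note: secreted streptokinase activity via plasminogen activation per viability signal from cell pellet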
T2 sequence (P10520 whole entry): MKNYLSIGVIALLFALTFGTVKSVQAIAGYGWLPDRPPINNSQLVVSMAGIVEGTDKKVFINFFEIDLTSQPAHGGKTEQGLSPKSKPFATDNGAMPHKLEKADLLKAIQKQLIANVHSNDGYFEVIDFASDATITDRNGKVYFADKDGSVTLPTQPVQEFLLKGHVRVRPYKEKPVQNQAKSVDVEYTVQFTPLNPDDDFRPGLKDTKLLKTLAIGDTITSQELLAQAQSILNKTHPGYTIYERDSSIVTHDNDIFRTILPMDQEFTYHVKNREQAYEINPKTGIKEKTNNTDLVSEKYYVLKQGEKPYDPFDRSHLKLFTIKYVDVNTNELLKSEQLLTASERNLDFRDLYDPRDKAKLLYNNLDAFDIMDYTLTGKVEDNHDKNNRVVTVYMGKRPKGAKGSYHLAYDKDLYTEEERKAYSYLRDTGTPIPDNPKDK

[6] = Luminescence Cell-Based Dose Confirmation HTS to Identify Inhibitors of Polyadenylation.; type: functional
[7] = system: Streptococcus; test: GAS UMAA2166 growth inhibition – luminescence, BacTiterGlo, counter-screen for streptokinase expression inhibitor project, dose response (AID 1915); type: functional, organism-based;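 note: potency for reduction of bacterial viability or growth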
[8] = biological target: Multidrug resistance protein CDR1 (Candida albicans, UniProt P43071); test: inhibition of Nile Red efflux via Candida CDR1 – S. cerevisiae AD1-8u, singleplex, Cherry Pick1 hits, dose response (AID 588606); type: functional
Multidrug resistance protein CDR1, sequence (P43071 whole entry, looked up): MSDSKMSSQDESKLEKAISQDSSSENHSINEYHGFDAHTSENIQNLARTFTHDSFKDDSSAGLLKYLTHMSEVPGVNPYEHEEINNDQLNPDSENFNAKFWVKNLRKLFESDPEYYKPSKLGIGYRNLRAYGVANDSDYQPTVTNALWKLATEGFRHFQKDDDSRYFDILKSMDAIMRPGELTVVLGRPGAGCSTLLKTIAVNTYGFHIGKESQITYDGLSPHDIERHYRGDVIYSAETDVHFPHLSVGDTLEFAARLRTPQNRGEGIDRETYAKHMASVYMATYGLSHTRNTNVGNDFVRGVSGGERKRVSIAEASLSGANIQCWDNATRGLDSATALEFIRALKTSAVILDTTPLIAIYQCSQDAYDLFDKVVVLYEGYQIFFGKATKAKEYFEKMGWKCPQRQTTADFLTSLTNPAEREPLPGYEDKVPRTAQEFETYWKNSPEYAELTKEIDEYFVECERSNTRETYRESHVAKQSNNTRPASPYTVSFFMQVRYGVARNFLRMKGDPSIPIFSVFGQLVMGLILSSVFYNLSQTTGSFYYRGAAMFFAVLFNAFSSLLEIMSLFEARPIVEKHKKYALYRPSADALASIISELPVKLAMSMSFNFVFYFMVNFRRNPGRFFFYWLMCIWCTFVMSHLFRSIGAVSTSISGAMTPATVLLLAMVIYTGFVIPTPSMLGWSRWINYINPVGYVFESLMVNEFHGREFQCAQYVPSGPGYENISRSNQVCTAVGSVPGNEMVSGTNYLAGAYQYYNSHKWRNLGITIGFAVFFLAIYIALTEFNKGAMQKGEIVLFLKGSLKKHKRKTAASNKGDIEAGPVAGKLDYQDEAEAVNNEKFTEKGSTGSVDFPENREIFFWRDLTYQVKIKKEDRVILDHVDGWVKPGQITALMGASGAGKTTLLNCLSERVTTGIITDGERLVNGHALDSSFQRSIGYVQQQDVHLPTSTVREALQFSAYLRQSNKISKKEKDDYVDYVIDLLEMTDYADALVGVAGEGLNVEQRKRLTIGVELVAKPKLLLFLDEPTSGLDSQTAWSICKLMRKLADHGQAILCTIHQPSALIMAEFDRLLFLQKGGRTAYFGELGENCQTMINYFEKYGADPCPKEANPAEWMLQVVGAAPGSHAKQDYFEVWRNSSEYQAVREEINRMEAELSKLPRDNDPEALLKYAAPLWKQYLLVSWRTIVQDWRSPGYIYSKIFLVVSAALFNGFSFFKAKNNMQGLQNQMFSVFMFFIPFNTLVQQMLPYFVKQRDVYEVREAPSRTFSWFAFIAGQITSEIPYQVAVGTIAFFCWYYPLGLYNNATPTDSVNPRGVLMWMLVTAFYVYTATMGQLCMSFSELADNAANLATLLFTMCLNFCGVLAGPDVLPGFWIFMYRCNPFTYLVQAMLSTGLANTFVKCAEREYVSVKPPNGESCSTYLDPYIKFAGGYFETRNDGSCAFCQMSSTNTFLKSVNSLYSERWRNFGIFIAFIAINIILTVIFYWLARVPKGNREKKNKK

[9] = biological target: Photoreceptor-specific nuclear receptor (Homo sapiens, UniProt Q9Y5X4); type: functional;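 note: potency for compounds that break the NR2E3 corepressor complex and count as activators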
Photoreceptor-specific nuclear receptor, sequence (Q9Y5X4 whole entry, the tested form may be a part): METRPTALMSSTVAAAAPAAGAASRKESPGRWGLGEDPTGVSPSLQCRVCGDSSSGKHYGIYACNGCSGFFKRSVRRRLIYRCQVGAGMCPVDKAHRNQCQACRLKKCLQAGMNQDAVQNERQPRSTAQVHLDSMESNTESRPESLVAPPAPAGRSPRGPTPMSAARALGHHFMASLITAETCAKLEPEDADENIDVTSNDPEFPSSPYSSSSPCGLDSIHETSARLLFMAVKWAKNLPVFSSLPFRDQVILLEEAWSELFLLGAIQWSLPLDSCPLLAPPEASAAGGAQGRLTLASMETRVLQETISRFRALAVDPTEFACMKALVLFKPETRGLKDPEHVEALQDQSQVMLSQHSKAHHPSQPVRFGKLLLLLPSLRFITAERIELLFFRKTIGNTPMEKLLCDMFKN

[10] = biological target: T3, RNA-binding protein pos-1 (Caenorhabditis elegans, UniProt G5EF15); test: disruptors of C. elegans POS-1 RNA interaction – biochemical, fluorescence polarization, dose response (AID 1964);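 note: purified POS-1 fused to maltose binding protein made in E. coli; potency of compounds blocking POS-1 binding to fluorescent RNA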
T3 sequence (G5EF15 whole entry): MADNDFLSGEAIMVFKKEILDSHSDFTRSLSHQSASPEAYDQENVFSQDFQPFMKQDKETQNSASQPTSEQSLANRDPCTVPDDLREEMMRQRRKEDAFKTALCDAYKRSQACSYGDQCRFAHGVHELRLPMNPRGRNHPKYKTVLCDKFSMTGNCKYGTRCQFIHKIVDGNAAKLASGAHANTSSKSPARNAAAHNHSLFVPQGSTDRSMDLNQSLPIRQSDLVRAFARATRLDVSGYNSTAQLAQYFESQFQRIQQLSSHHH

[11] = biological target: T4, Zinc finger protein mex-5 (Caenorhabditis elegans, UniProt Q9XUB2); test: potency of MEX-5 RNA-binding blockers – biochemical, C. elegans, fluorescence polarization, dose response (AID 1960)
T4 sequence (Q9XUB2 whole entry): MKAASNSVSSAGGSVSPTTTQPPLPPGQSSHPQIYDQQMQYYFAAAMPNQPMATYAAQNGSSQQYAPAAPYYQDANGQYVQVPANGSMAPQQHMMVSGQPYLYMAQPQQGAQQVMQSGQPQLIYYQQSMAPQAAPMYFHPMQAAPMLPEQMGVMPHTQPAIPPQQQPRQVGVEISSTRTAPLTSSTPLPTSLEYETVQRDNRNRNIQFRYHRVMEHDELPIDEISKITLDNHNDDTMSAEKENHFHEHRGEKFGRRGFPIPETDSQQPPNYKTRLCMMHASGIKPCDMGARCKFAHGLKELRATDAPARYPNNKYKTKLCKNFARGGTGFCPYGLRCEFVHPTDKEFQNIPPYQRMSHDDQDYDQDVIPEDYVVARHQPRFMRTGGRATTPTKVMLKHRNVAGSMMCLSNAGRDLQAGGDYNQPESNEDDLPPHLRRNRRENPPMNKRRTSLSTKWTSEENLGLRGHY

[12] = biological target: Peroxisome proliferator-activated receptor gamma/Nuclear receptor corepressor 2 (Homo sapiens, UniProt P37231+Q9Y618); type: functional
[13] = biological target: T1, Polyadenylate-binding protein 1; test: MLLE binding blockers, Cy5 peptide tracer – biochemical, fluorescence polarization, Cy5-PAM2 peptide, secondary, miRNA deadenylation inhibitor project, dose response (AID 602260); type: functional; conditions: read-out: IC50_Mean
[14] = biological target: T1, Polyadenylate-binding protein 1; test: MLLE domain peptide-binding blockers, IC50 – biochemical, fluorescence polarization, FITC-PAM2 peptide, dose response (AID 602259); type: functional; conditions: read-out: IC50_Mean
[15] = biological target: T5, Eukaryotic translation initiation factor 2-alpha kinase 3 (Homo sapiens, UniProt Q9NZJ5); test: Dose response cell-based high-throughput screening assay to measure PERK inhibition. [Related pubchem assays: 1416 ]; type: functional
T5 sequence (Q9NZJ5 whole entry): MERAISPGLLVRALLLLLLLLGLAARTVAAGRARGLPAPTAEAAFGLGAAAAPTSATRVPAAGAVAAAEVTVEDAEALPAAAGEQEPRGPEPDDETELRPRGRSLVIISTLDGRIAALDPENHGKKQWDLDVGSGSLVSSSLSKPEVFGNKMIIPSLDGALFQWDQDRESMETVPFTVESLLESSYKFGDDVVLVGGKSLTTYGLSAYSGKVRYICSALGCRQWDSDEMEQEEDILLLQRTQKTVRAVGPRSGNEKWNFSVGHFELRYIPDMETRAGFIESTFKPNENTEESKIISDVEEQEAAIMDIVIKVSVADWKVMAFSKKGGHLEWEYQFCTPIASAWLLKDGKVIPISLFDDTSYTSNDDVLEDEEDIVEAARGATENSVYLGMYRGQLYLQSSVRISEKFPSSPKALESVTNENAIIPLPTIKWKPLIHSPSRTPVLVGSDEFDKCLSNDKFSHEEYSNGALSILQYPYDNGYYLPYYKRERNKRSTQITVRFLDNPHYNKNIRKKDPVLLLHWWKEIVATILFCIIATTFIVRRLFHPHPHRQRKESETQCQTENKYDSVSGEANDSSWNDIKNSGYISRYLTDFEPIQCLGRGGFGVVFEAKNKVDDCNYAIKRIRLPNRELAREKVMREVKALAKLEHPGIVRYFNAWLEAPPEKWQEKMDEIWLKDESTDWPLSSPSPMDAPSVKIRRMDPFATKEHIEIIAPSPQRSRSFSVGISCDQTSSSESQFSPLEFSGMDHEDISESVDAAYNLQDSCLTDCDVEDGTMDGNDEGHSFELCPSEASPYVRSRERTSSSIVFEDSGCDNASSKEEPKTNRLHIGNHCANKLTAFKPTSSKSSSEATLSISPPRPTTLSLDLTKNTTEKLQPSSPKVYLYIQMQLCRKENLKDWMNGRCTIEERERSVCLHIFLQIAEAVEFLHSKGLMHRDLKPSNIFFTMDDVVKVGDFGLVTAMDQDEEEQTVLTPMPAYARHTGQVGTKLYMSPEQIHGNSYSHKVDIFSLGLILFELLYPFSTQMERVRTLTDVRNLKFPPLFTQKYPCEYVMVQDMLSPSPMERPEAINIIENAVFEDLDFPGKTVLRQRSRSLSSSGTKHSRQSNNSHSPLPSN

[16] = biological target: T5, Eukaryotic translation initiation factor 2-alpha kinase 3; test: Counterscreen assay for PERK inhibitors: Dose response cell-based high throughput screening assay to measure inhibition of PERK at 6 hours. [Related pubchem assays: 1522, 1416 ]; type: functional
[17] = biological target: T6, Caspase-6 (Homo sapiens, UniProt P55212); test: inhibition of CASP6 peptide cleavage – biochemical, VEID-R110 fluorescence, cherry-pick, dose response (AID 720632)
T6 sequence (P55212 whole entry): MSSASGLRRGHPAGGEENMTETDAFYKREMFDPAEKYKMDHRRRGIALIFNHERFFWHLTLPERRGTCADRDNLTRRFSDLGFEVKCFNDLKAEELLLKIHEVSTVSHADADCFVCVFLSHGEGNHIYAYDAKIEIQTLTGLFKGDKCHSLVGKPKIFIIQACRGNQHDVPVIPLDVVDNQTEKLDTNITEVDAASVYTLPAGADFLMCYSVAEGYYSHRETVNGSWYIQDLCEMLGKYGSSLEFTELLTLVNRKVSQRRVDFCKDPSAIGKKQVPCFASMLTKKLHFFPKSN

COc1cc(C)cc(C(=O)O)c1C1=C(O)C(=O)c2c(O)cccc2C1=O
IC50 [1]: 5.43 µM (active) | IC50 [2]: 5.41 µM (active)

COc1cc(/C=C2/CC/C(=C/c3ccc(O)c(OC)c3)C2=O)ccc1O
EC50 [3]: 173 µM (active) | EC50 [4]: 15.8 µM (active) | EC50 [5]: > 150 µM (not active) | EC50 [6]: 6.57 µM (active) | EC50 [7]: 76.7 µM (active) | EC50 [8]: 27.1 µM (active)

COC(=O)c1cc2n3ccccc3c(C)c(-c3ccccc3)c-2c1C(=O)OC
IC50 [9]: 0.186 µM (active) | EC50 [10]: 23.6 µM (active) | EC50 [11]: 16.6 µM (active) | IC50 [12]: 0.196 µM (active) | IC50 [13]: > 66 µM (inactive) | IC50 [14]: 54.7 µM (inactive)

CCOC(=O)c1sc(NC(=O)C2C3C=CC(C3)C2C(=O)O)nc1C (configuration not stated)
EC50 [15]: > 55.7 µM (not active) | EC50 [16]: > 55.7 µM (not active) | AC50 [17]: 11.1 µM (active)
